Columns and labels:
[1] = system: hypercholesterolemic swine; assay: Serum cholesterol, apolipoproteins, triglycerides, glucose, insulin and glucagon in hypercholesterolemic swine; format: in vivo
Method: All assays conducted on chicken or swine serum were done following the protocols described in A. A. Qureshi et al., "Lowering Of Serum Cholesterol In Hypercholesterolemic Humans By Tocotrienols" (Palmvitee), Am. […] Plasma insulin, glucagon and TNF levels were measured using radioinnumoassay kits from Ventrex Laboratories, Inc. (Portland, Me.), ICN Biomedicals, Inc. (Costa Mesa, Calif.) and Genzyme Corp. (Cambridge, Mass.), respectively.
We next measured the effects of various tocotrienols from rice bran on HMG-CoA reductase and cholesterol 7α-hydroxylase in hypercholesterolemic swine. Since pigs are very similar to humans in their cholesterol metabolism, they provide a useful model from which to study hypercholesterolemia and related diseases. […] As a result, the pigs develop complicated atherosclerotic plaques that closely resemble advanced atherosclerotic lesions found in humans.
Each group of three 5-month old swine was administered either a control diet or a control diet supplemented with 50 ppm of TRF or 50 ppm of an individual tocotrienol. […] After a 12 hour fast, serum and plasma samples were taken a 0 hrs, 21 days and 42 days from the start of the feeding period. After taking serum and plasma samples from the pigs at the end of the 42 day period, all of the swine were fasted for a total of 40 hours, followed by a 48 hour refeeding period. One swine from each group was sacrificed at that time and the liver, intestine, lung, heart, loin muscle, adipose tissue and ham muscle were removed.
The experimental conditions were the same, except that the two remaining swine in each group were transferred to the unsupplemented control diet following the 42 day feeding period. After an additional 70 days, serum and plasma samples were collected from these swine after a 12 hour fast for testing.

[2] = system: cholesterol 7α-hydroxylase; assay: Hepatic cholesterol 7α-hydroxylase activity in chickens fed supplemented diets; format: in vivo, chicken; conditions: control diet + 50 ppm, 4 weeks
Method: (§1) This example measured the effects of the TRF and its components on the hepatic enzymatic activity of HMG-CoA reductase and cholesterol 7α-hydroxylase. […] The amount of feed consumed ranged from 11.19-11.60 g per chicken and the feeding period was 4 weeks. The birds were fasted for a period of 36 hours and refed for 48 hours prior to sacrifice (at 0800 hours).

chickens = assay: Plasma thromboxane B2 and platelet factor 4 in chickens fed supplemented diets; format: in vivo, chicken; conditions: control diet + 50 ppm, 4 weeks
Excerpt: We next measured the effects of TRF and its components on serum levels of apolipoprotein (a)1, apolipoprotein B, triglycerides and glucose and the plasma levels of thromboxane B2 and platelet factor 4.

HMG-CoA reductase = target: T1, HMG-CoA reductase (Homo sapiens, UniProt P04035); assay: Hepatic HMG-CoA reductase activity in chickens fed supplemented diets; format: in vivo, chicken; conditions: 4 weeks
T1 construct: hepatocytes isolated from livers of 8-week old female chickens; endogenous in cells; host or cells: primary chicken hepatocytes
T1 sequence (P04035 1-888): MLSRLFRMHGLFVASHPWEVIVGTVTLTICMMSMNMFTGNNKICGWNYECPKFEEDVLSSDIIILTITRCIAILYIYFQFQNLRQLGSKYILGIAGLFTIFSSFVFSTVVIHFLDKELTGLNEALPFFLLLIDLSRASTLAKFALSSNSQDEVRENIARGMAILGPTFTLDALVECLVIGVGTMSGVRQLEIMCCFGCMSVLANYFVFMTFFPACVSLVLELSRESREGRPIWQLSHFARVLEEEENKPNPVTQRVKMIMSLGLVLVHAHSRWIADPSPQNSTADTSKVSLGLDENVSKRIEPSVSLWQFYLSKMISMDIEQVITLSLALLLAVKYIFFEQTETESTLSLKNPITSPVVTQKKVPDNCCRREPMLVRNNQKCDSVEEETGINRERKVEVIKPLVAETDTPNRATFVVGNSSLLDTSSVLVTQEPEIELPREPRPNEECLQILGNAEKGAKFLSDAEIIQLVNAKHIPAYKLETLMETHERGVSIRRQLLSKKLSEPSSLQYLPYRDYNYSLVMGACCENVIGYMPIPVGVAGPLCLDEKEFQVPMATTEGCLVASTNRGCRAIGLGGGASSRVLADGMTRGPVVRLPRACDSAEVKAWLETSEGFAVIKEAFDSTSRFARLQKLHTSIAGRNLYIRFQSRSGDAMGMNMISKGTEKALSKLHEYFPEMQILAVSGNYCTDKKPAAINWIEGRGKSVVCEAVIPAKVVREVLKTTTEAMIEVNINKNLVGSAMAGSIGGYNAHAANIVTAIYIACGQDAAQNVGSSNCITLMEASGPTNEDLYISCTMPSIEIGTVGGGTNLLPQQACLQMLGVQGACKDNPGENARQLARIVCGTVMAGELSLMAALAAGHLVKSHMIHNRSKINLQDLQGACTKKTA
Method: as §1

[3] = 70 days on control diet after 42 days at 50 ppm

SMILES: CC(C)=CCC/C(C)=C/CC/C(C)=C/CCC1CCc2cc(O)ccc2O1 (stereo not drawn) [P25, 3,4-dihydro-2-(4,8,12-trimethyltrideca-3'(E),7'(E),11'-trienyl)-2H-1-benzopyran-6-ol]
- HDL-CHOLESTEROL CONCENTRATION IN SERUM [1, 3]: 32.65 mg/100 ml
- HDL-CHOLESTEROL, Percentage of Control Activity [1, 3]: 114.29%
- HDL-CHOLESTEROL, percentage of baseline value [1, 3]: 149.36%
- HDL:LDL CHOLESTEROL, Percentage of Control Activity [1, 3]: 82.06%
- LDL-CHOLESTEROL CONCENTRATION IN SERUM [1, 3]: 233.75 mg/100 ml
- LDL-CHOLESTEROL, Percentage of Control Activity [1, 3]: 90.17%
- LDL-CHOLESTEROL, percentage of baseline value [1, 3]: 128.17%
- TOTAL CHOLESTEROL CONCENTRATION IN SERUM [1, 3]: 268.90 mg/100 ml
- TOTAL CHOLESTEROL, Percentage of Control Activity [1, 3]: 75.60%
- TOTAL CHOLESTEROL, percentage of baseline value [1, 3]: 124.45%
- Apo A1, percentage of control ([1]; control diet + 50 ppm, 6 weeks): 104.05%
- Apo A1 concentration in serum ([1]; control diet + 50 ppm, 6 weeks): 26.73 ± 1.22 mg/100 ml
- Apo B concentration in serum ([1]; control diet + 50 ppm, 6 weeks): 106.63 ± 1.72 mg/100 ml
- Apo B, percentage of control ([1]; control diet + 50 ppm, 6 weeks): 72.16%
- Triglycerides concentration in serum ([1]; control diet + 50 ppm, 6 weeks): 62.00 ± 1.19 mg/100 ml
- Triglycerides, percentage of control ([1]; control diet + 50 ppm, 6 weeks): 80.98%
- HDL-CHOLESTEROL CONCENTRATION IN SERUM ([1]; control diet + 50 ppm, 21 days): 25.68 mg/100 ml
- HDL-CHOLESTEROL, percentage of baseline value ([1]; control diet + 50 ppm, 21 days): 117.47%
- HDL:LDL CHOLESTEROL, percentage of baseline value ([1]; control diet + 50 ppm, 21 days): 89.20%
- LDL-CHOLESTEROL CONCENTRATION IN SERUM ([1]; control diet + 50 ppm, 21 days): 191.05 mg/100 ml
- LDL-CHOLESTEROL, percentage of baseline value ([1]; control diet + 50 ppm, 21 days): 104.76%
- TOTAL CHOLESTEROL CONCENTRATION IN SERUM ([1]; control diet + 50 ppm, 21 days): 229.90 mg/100 ml
- TOTAL CHOLESTEROL, percentage of baseline value ([1]; control diet + 50 ppm, 21 days): 106.33%
- Glucagon ([1]; control diet + 50 ppm, 42 days): 274.41 pg/mL
- Glucagon, percentage of control ([1]; control diet + 50 ppm, 42 days): 83.05%
- Glucose ([1]; control diet + 50 ppm, 42 days): 71.89 mg/100 ml
- Glucose, percentage of control ([1]; control diet + 50 ppm, 42 days): 74.89%
- HDL-CHOLESTEROL CONCENTRATION IN SERUM ([1]; control diet + 50 ppm, 42 days): 31.81 mg/100 ml
- HDL-CHOLESTEROL, Percentage of Control Activity ([1]; control diet + 50 ppm, 42 days): 123.75%
- HDL-CHOLESTEROL, percentage of baseline value ([1]; control diet + 50 ppm, 42 days): 145.52%
- HDL:LDL CHOLESTEROL, Percentage of Control Activity ([1]; control diet + 50 ppm, 42 days): 55.59%
- HDL:LDL CHOLESTEROL, percentage of baseline value ([1]; control diet + 50 ppm, 42 days): 74.58%
- Insulin ([1]; control diet + 50 ppm, 42 days): 20.9 µU/mL
- Insulin, percentage of control ([1]; control diet + 50 ppm, 42 days): 101.90%
- LDL-CHOLESTEROL CONCENTRATION IN SERUM ([1]; control diet + 50 ppm, 42 days): 198.01 mg/100 ml
- LDL-CHOLESTEROL, Percentage of Control Activity ([1]; control diet + 50 ppm, 42 days): 65.51%
- LDL-CHOLESTEROL, percentage of baseline value ([1]; control diet + 50 ppm, 42 days): 107.48%
- TOTAL CHOLESTEROL CONCENTRATION IN SERUM ([1]; control diet + 50 ppm, 42 days): 237.64 mg/100 ml
- TOTAL CHOLESTEROL, Percentage of Control Activity ([1]; control diet + 50 ppm, 42 days): 68.60%
- TOTAL CHOLESTEROL, percentage of baseline value ([1]; control diet + 50 ppm, 42 days): 107.60%
- Cholesterol 7α-Hydroxylase, percentage of control [2]: 111.45%
- Cholesterol 7α-hydroxylase [2]: 11.39 nmol/min/mg
- Platelet Factor 4 (chickens): 7.27 ng/mL
- Platelet Factor 4, percentage of control (chickens): 55.54%
- Thromboxane B2 (chickens): 16.42 pg/mL
- Thromboxane B2, percentage of control (chickens): 63.54%
- reduction of enzymatic activity of HMG-CoA reductase (HMG-CoA reductase; 50 ppm in diet): about 28%
- HMG-CoA Reductase, percentage of control (HMG-CoA reductase; control diet + 50 ppm): 71.33%

Reference: patent US6239171A, “Tocotrienols and tocotrienol-like compounds and methods for their use” (Lipogenics, Inc., priority 1998, dated 2001)
